Source: patent publication US7935687B2, “Methods for treating spinal muscular atrophy using tetracycline compounds” (Paratek Pharmaceuticals, Inc., priority 2007, dated 2011)

Key:
SMN2 mRNA = test: In vitro cell-free splicing assay for inclusion of exon 7; assay type: biochemical; details: HeLa cell nuclear extract, 30° C., 3 hours
Experimental: The following example illustrates how tetracycline compound of the invention are active in an in vitro cell-free assay for the inclusion of exon 7 in […] mRNA. SMN1 and SMN2 pre-mRNA were prepared by in vitro transcription using T7 RNA polymerase of minigene templates that include exon 6, a truncated portion of intron 6, exon 7, intron 7 and a portion of exon 8 in the presence of ^32P-UTP. Labeled RNA was purified on a denaturing polyacrylamide gel followed by phenol extraction and ethanol precipitation of the RNA.
In vitro cell-free splicing of SMN1 and SMN2 transcripts was carried out in a 10 μl reaction volume at 30° C. for 3 hours. The reactions contained 10 fmol of labeled pre-mRNA, 30% (3 VI) HeLa cell nuclear extract (in 20 mM HEPES, pH 7.4, 20% (v/v) glycerol, 0.1M KC1, 0.2 mM EDTA), 1.3% (w/v) polyvinyl alcohol, 1.56 mM MgCl2, 32 mM HEPES, pH 7.4, 0.5 mM ATP, 20 mM creatine phosphate and either 2 μl of test compound (in 20 mM HEPES, pH 7.4, 0.1M KC1, 0.2 mM EDTA) or buffer alone. Following incubation, 200 μl of a solution containing 0.3M NaAc and 0.2% SDS was added to the reaction. Proteins were removed by extraction with an equal volume of phenol and RNA was precipitated with 2.5 volumes of ethanol. RNA was resuspended in formamide sample buffer and separated on a 9% urea-denaturing polyacrylamide gel. Quantitation of splicing was based on phosphorimage analysis (Fujix BAS2000 or Fujifilm FLA-5100). In this assay, percentage exon 7 inclusion averages 12% for the unmutated SMN1 mRNA and 4% for the SMN2 mRNA.
The in vitro activities for exon 7 splicing are expressed as the Emax (the maximum percentage exon 7 inclusion observed) and Cmax (the lowest compound concentration at which the maximum inclusion occurs in μM). For Emax, percentage inclusion values of less than 10% are indicated by “*”, values of 10-20% are indicated by “**”, and values greater than 20% are indicated by “***”. For Cmax data, concentrations of greater than 40 μM are indicated by “*”, concentrations between 40 and 10 μM are represented by “**” and concentrations of less than 10 μM are represented by “***”.

S. aureus (SA RN450) = test: Antibacterial MIC, gram positive; assay type: cell-based; details: CLSI methodology, 35° C., 18-24 hours
E. coli (EC D1-209) = test: Antibacterial MIC, gram negative; assay type: cell-based; details: CLSI methodology, 35° C., 18-24 hours

| MIC (S. aureus (SA RN450); Staphylococcus aureus) [µg/mL] | MIC (E. coli (EC D1-209); Escherichia coli) [µg/mL] | Compound | Cmax (lowest compound concentration at which the maximum exon 7 inclusion occurs) (SMN2 mRNA) | Emax (maximum percentage exon 7 inclusion observed) (SMN2 mRNA) | MIC Gram Positive (SA RN450) (S. aureus (SA RN450)) | MIC Gram Negative (EC D1-209) (E. coli (EC D1-209)) |
| --- | --- | --- | --- | --- | --- | --- |
| > 8 | > 8 | CN(C)CCCCNCc1ccc(O)c2c1C[C@H]1C[C@H]3[C@H](N(C)C)C(O)=C(C(N)=O)C(=O)[C@@]3(O)C(O)=C1C2=O [Compound CN, (4S,4aS,5aR,12aS)-4-Dimethylamino-7-[(4-dimethylamino-butylamino)-methyl]-3,10,12,12a-tetrahydroxy-1,11-dioxo-1,4,4a,5,5a,6,11,12a-octahydro-naphthacene-2-carboxylic Acid Amide] | *** (concentrations of less than 10 μM) | ** (values of 10-20%) |  |  |
|  |  | CN(C)C1C(O)=C(C(N)=O)C(=O)C2(O)C(O)=C3C(=O)c4c(O)ccc(C(=O)CNc5cccnc5)c4CC3CC12 (stereo not drawn) [CB] | ** (concentrations between 40 and 10 μM) | ** (values of 10-20%) | * (weak antibacterial activity (greater than about 8 μg/mL)) | * (weak antibacterial activity (greater than about 8 μg/mL)) |
|  |  | CNCCNC(=O)c1cccc(-c2ccc(O)c3c2CC2CC4C(N(C)C)C(O)=C(C(N)=O)C(=O)C4(O)C(O)=C2C3=O)c1 (stereo not drawn) [M] | ** (concentrations between 40 and 10 μM) | *** (values greater than 20%) | ** (modest antibacterial activity (between about 4 and 8 μg/mL)) | * (weak antibacterial activity (greater than about 8 μg/mL)) |
|  |  | CC(C)N1CCN(CC(=O)c2ccc(O)c3c2CC2CC4C(N(C)C)C(O)=C(C(N)=O)C(=O)C4(O)C(O)=C2C3=O)CC1 (stereo not drawn) [BX] | * (concentrations of greater than 40 μM) | * (percentage inclusion values of less than 10%) | *** (Good antibacterial activity (e.g., less than about 4 μg/mL)) | * (weak antibacterial activity (greater than about 8 μg/mL)) |
|  |  | CC(=O)NCCNC(=O)c1cccc(-c2ccc(O)c3c2CC2CC4C(N(C)C)C(O)=C(C(N)=O)C(=O)C4(O)C(O)=C2C3=O)c1 (stereo not drawn) [S] | * (concentrations of greater than 40 μM) | ** (values of 10-20%) | *** (Good antibacterial activity (e.g., less than about 4 μg/mL)) | * (weak antibacterial activity (greater than about 8 μg/mL)) |
|  |  | CN(C)CCNC(=O)c1ccc(O)c2c1CC1CC3C(N(C)C)C(O)=C(C(N)=O)C(=O)C3(O)C(O)=C1C2=O (stereo not drawn) [AH] | ** (concentrations between 40 and 10 μM) | * (percentage inclusion values of less than 10%) | * (weak antibacterial activity (greater than about 8 μg/mL)) | * (weak antibacterial activity (greater than about 8 μg/mL)) |
|  |  | CN(C)C1C(O)=C(C(N)=O)C(=O)C2(O)C(O)=C3C(=O)c4c(O)ccc(-c5ccc(NC(=O)CNC(C)(C)C)cc5)c4CC3CC12 (stereo not drawn) [AF] | *** (concentrations of less than 10 μM) | * (percentage inclusion values of less than 10%) | *** (Good antibacterial activity (e.g., less than about 4 μg/mL)) | *** (Good antibacterial activity (e.g., less than about 4 μg/mL)) |
|  |  | COc1ccc(CNCc2ccc(-c3ccc(O)c4c3CC3CC5C(N(C)C)C(O)=C(C(N)=O)C(=O)C5(O)C(O)=C3C4=O)cc2)cc1 (stereo not drawn) [AW] | *** (concentrations of less than 10 μM) | ** (values of 10-20%) | *** (Good antibacterial activity (e.g., less than about 4 μg/mL)) | *** (Good antibacterial activity (e.g., less than about 4 μg/mL)) |
|  |  | CON=Cc1ccc(-c2ccc(O)c3c2CC2CC4C(N(C)C)C(O)=C(C(N)=O)C(=O)C4(O)C(O)=C2C3=O)o1 (stereo not drawn) [AZ] | *** (concentrations of less than 10 μM) | ** (values of 10-20%) | *** (Good antibacterial activity (e.g., less than about 4 μg/mL)) | * (weak antibacterial activity (greater than about 8 μg/mL)) |
|  |  | CN(C)C1C(O)=C(C(N)=O)C(=O)C2(O)C(O)=C3C(=O)c4c(O)ccc(-c5ccc(CN6CCOCC6)o5)c4CC3CC12 (stereo not drawn) [AX] | *** (concentrations of less than 10 μM) | ** (values of 10-20%) | *** (Good antibacterial activity (e.g., less than about 4 μg/mL)) | ** (modest antibacterial activity (between about 4 and 8 μg/mL)) |
|  |  | COc1ccc(-c2ccc(O)c3c2CC2CC4C(N(C)C)C(O)=C(C(N)=O)C(=O)C4(O)C(O)=C2C3=O)cc1CNCC(N)=O (stereo not drawn) [BE] | *** (concentrations of less than 10 μM) | ** (values of 10-20%) | *** (Good antibacterial activity (e.g., less than about 4 μg/mL)) | * (weak antibacterial activity (greater than about 8 μg/mL)) |
|  |  | CN(C)C1C(O)=C(C(N)=O)C(=O)C2(O)C(O)=C3C(=O)c4c(O)ccc(C(=O)CNCc5cccn5C)c4CC3CC12 (stereo not drawn) [CE] | *** (concentrations of less than 10 μM) | ** (values of 10-20%) | *** (Good antibacterial activity (e.g., less than about 4 μg/mL)) | * (weak antibacterial activity (greater than about 8 μg/mL)) |
|  |  | CC(=O)NCCC(=O)c1ccc(O)c2c1CC1CC3C(N(C)C)C(O)=C(C(N)=O)C(=O)C3(O)C(O)=C1C2=O (stereo not drawn) [CI] | * (concentrations of greater than 40 μM) | ** (values of 10-20%) | *** (Good antibacterial activity (e.g., less than about 4 μg/mL)) | * (weak antibacterial activity (greater than about 8 μg/mL)) |
|  |  | CN(C)CCCCNC(=O)c1cccc(-c2ccc(O)c3c2CC2CC4C(N(C)C)C(O)=C(C(N)=O)C(=O)C4(O)C(O)=C2C3=O)c1 (stereo not drawn) [CL] | ** (concentrations between 40 and 10 μM) | *** (values greater than 20%) | ** (modest antibacterial activity (between about 4 and 8 μg/mL)) | * (weak antibacterial activity (greater than about 8 μg/mL)) |
|  |  | CN1CCN(Cc2ccc(-c3ccc(O)c4c3CC3CC5C(N(C)C)C(O)=C(C(N)=O)C(=O)C5(O)C(O)=C3C4=O)o2)CC1 (stereo not drawn) [AY] | *** (concentrations of less than 10 μM) | *** (values greater than 20%) | *** (Good antibacterial activity (e.g., less than about 4 μg/mL)) | * (weak antibacterial activity (greater than about 8 μg/mL)) |
